Measurements as given in patent US20230332232A1, “COMPOSITIONS AND METHODS FOR DIAGNOSING AND TREATING A DYSTONIA” (Duke University, priority 2020, published 2023).

Test system: wild-type (WT) murine embryonic fibroblasts (MEFs)
Test: Untargeted LC/MS/MS proteomics of EVs from WT MEFs exposed 24 hours to drug, compared with untreated WT MEFs
Assay type: cell-based, mouse
Experimental: Methods for isolation and purification of exosomes and extracellular vesicles (EV) were extensively reviewed. Experiments were performed to arrive at a robust and reproducible protocol. The protocol used herein is that set forth in Théry et al, 2006, which is incorporated by reference for it teaching of this protocol. This protocol involves depleting serum-derived EVs from cell culture media by overnight ultracentrifugation and exchanging media for 1% FBS EV-depleted media. Media is then collected from cells following a 24-hour conditioning period and EVs are isolated by 18-hour ultracentrifugation at 100,000 g (FIG. 1A).
EVs were isolated from media of cultured murine embryonic fibroblasts (MEFs) prepared in-house according to protocols described by Xu 2005 from DYT1 knockin mice (Tor1a^delGAG/+) (Goodchild R E, et al. (2005) Neuron. 48:923-932) and littermate wild-type (WT) controls. The cultured MEFs from the DYT1 mice were exposed for 24 hours to Ritonavir (RTV) while the MEFs from WT mice were exposed to vehicle, ISRIB, or Salubrinal (SAL). The EVs isolated from these WT cells and DYT1 were characterized by untargeted proteomics and RNA-seq to identify differentially expressed proteins and RNAs as candidate biomarkers. Experimenter and Proteomics core staff were blinded to genotype of cell cultures throughout preparation and analysis phases. EV isolation was confirmed by Western immunoblot documenting presence of the exosomal marker (TSG101) and absence of the endoplasmic reticulum (ER) marker (CANX) (FIG. 1B (Cohort 1) and FIG. 1C (Cohort 2)).
Following the bicinchoninic acid assay (BCA) analysis and Western immunoblot of a portion of samples for QC, 11.6 μg-129.2 μg of EV protein lysates in RIPA buffer were sent to the Duke Proteomics and Metabolomics Shared Resource core facility for LC/MS/MS quantitative proteomic analysis. Samples were first normalized to 20 μg and spiked with undigested casein at a total of 40 fmol/μg, 80 fmol/μg, or 160 fmol/μg, then reduced with 10 mM dithiolthreitol for 30 minute at 80° C. and alkylated with 20 mM iodoacetamide for 30 minutes at room temperature. Next, the samples were supplemented with a final concentration of 1.2% phosphoric acid and 741 μL of S-Trap (Protifi) binding buffer (90% MeOH/100 mM […]). Proteins were trapped on the S-Trap, digested using 20 ng/μL sequencing grade trypsin (Promega) for 1 hour at 47° C., and eluted using 50 mM TEAB, followed by 0.2% FA, and lastly using 50% CAN/0.2% FA. All samples were then lyophilized to dryness and resuspended in 40 μL 1% TFA/2% acetonitrile containing 12.5 fmol/μL yeast alcohol dehydrogenase (ADH_YEAST). A QC Pool was created from 3 uL of each sample. All QC Pools were run periodically throughout the acquisition period.
Quantitative LC/MS/MS was performed on 2 μL of each sample, using a nanoAcquity UPLC system (Waters Corp) coupled to a Thermo Orbitrap Fusion Lumos high resolution accurate mass tandem mass spectrometer (Thermo) via a nanoelectrospray ionization source. Briefly, the sample was first trapped on a Symmetry C18 20 mm×180 μm trapping column (5 μL/min at 99.9/0.1 v/v water/acetonitrile), after which the analytical separation was performed using a 1.8 μm Acquity HSS T3 C18 75 μm×250 mm column (Waters Corp.) with a 90 minute linear gradient of 5% to 30% acetonitrile with 0.1% formic acid at a flow rate of 400 nanoliters/minute (nL/min) with a column temperature of 55° C. Data collection on the Fusion Lumos mass spectrometer was performed in a data-dependent acquisition (DDA) mode of acquisition with a r=120,000 (@ m/z 200) full MS scan from m/z 375-1500 with a target AGC value of 2e5 ions. MS/MS scans were acquired at Rapid scan rate (Ion Trap) with an AGC target of 5e3 ions and a max injection time of 100 ms. The total cycle time for MS and MS/MS scans was 2 seconds. A 20 second dynamic exclusion was employed to increase depth of coverage. The total analysis cycle time for each sample injection was approximately 2 hours. […]

Measured: ISRIB Direction Same as dE?

O=C(COc1ccc(Cl)cc1)NC1CCC(NC(=O)COc2ccc(Cl)cc2)CC1 (stereo not shown) [ISRIH]
yes: EV protein: 26S proteasome non-ATPase regulatory subunit 8 | EV protein: 60S [?] subunit biogenesis protein [?] homolog | EV protein: 116 kDa [?] small nuclear ribonucleoprotein component | EV protein: AP-3 complex subunit [?] | EV protein: ATP- binding cassette sub-family [?] member 1 | EV protein: ATP-dependent RNA helicase [?] | EV protein: Acetyl-CoA carboxylase 1 | EV protein: Acyl-protein thioesterase 2 | EV protein: Anaphase-promoting complex subunit 2 | EV protein: Anaphase-promoting complex subunit 4 | EV protein: Anaphase-promoting complex subunit 5 | EV protein: Anaphase-promoting complex subunit 7 | EV protein: Apolipoprotein M | EV protein: Cell [?] cycle protein [?] homolog | EV protein: Cell division cycle protein 27 homolog | EV protein: Coiled-coil domain-containing protein 22 | EV protein: Cullin-2 | EV protein: Cullin-5 | EV protein: Cullin-7 | EV protein: Cytosolic purine [?] -nucleotidase | EV protein: DNA [?] (r264) | EV protein: DNA [?] licensing factor MCM4 | EV protein: DNA ligase 1 | EV protein: DNA replication licensing factor MCM5 | EV protein: DNA replication licensing factor [?] | EV protein: DNA-directed RNA polymerase II subunit RPB1 | EV protein: DNA-directed RNA polymerase II subunit RPB2 | EV protein: DNA-directed RNA polymerase II subunit RPB3 | EV protein: DNA-directed RNA polymerase [?] subunit RPA2 | EV protein: DNA-directed RNA polymerases I, II, and III subunit RPABC3 | EV protein: DNA-directed RNA polymerases I, II, and III subunit [?] | EV protein: Developmentally-regulated GTP-binding protein 2 | EV protein: Double-strand-break repair protein rad21 homolog | EV protein: Dual specificity mitogen-activated protein kinase kinase 4 | EV protein: Dynactin subunit 4 | EV protein: E3 ubiquitin-protein ligase [?] | EV protein: Elongin-B | EV protein: Exosome complex exonuclease RRP44 | EV protein: Gamma-tubulin complex component 2 | EV protein: Glucose-6-phosphate 1-dehydrogenase [?] | EV protein: Glycosylated lysosomal membrane protein | EV protein: Glycylpeptide N-tetradecanoyltransferase 1 | EV protein: Golgi reassembly-stacking protein 2 | EV protein: Histone-arginine methyltransterase CARM1 | EV protein: Immunity-related GTPase family M protein 1 | EV protein: Interleukin enhancer-binding factor 3 | EV protein: Leucyl-cystinyl aminopeptidase | EV protein: Lysine-specific histone demethylase [?] | EV protein: Mediator [?] RNA polymerase II transcription subunit 23 | EV protein: Metastasis-associated protein [?] (r222) | EV protein: Metastasis-associated protein [?] (r261) | EV protein: Methyl-CpG-binding domain protein [?] | EV protein: Microtubule-associated protein [?] | EV protein: N-alpha-acetyltransferase 10 | EV protein: Nuclear [?] complex protein [?] | EV protein: Nuclear cap-binding protein subunit 1 | EV protein: NudC domain-containing protein 1 | EV protein: Phosphoribosyl pyrophosphate synthase-associated protein 1 | EV protein: Probable ubiquitin carboxyl-terminal hydrolase [?] | EV protein: Protein O-GlcNAcase | EV protein: Protein RMD5 homolog A | EV protein: Protein [?] 14 homolog | EV protein: Protein transport protein [?] | EV protein: Ran-binding protein 10 | EV protein: Ribosome biogenesis protein BOP1 | EV protein: Ribosome production factor 2 homolog | EV protein: Serine threonine-protein phosphatase 2A 56 kDa regulatory subunit gamma isoform | EV protein: Serine threonine-protein phosphatase 6 catalytic subinit | EV protein: Sorting nexin-1 | EV protein: Splicing factor 3B subunit 4 | EV protein: Structural maintenance of [?] protein 2 | EV protein: WASH complex subunit 5 | EV protein: WD repeat-containing protein [?] | EV protein: WW domain-binding protein 2 | EV protein: [?] 2 (r185) | EV protein: [?] (r186) | EV protein: [?] -1 (r187) | EV protein: [?] -1 (r232) | EV protein: [?] -conjucating enxyme [?] | EV protein: [?] -promoting complex subunit 1 | EV protein: [?] -related [?] -associated actin-dependent regulator [?] chromatin subfamily A member 5 | EV protein: [?] complex subunit 2 | EV protein: [?] kinase | EV protein: [?] repeat-containing protein 5A | EV protein: [?] small nuclear ribonucleoprotein 40 kDa protein | EV protein: [?] small nucleolar RNA-associated protein 15 homolog | EV protein: [?] ubiquitin-protein ligase [?] | EV protein: p21-activated protein kinase-interacting protein 1 | EV protein: transportin-3 | WT MEF EVs, protein: DNA replication licensing factor MCM6 | WT MEF EVs, protein: DNA-directed RNA polymerases I and III subunit RPAC1 | WT MEF EVs, protein: Protein arginine N-methyltransferase 3 | WT MEF EVs, protein: Scavenger receptor class B member 1 | WT MEF EVs, protein: Serine threonine-protein phosphatase 2A 55 kDa regulatory subunit B alpha isoform | WT MEF EVs, protein: Small nuclear ribonucleoprotein-associated protein B | WT MEF EVs, protein: WASH complex subunit 4 | WT MEF EVs, protein: WD repeat-containing protein 26
